From ChEMBL document CHEMBL3751784, “Synthesis of novel 1-substituted triazole linked 1,2-benzothiazine 1,1-dioxido propenone derivatives as potent anti-inflammatory agents and inhibitors of monocyte-to-macrophage differentiation” (2015)
Calls of active or inactive are those of the source. No cut-off for these calls is given here.

Tests used:
Type in all cases: functional
[1] = Antiinflammatory activity in human THP1 cells assessed as inhibition of PMA-induced MCP-1 secretion at 10 uM preincubated for 2 hrs followed by PMA addition measured after 48 hrs by ELISA; settings: THP-1
[2] = Cytotoxicity against human THP1 cells assessed as cell viability at 20 uM after 48 hrs by tryphan blue dye exclusion assay relative to control; settings: THP-1, 48 h, read-out: Activity
[3] = Antiinflammatory activity in human THP1 cells assessed as inhibition of PMA-induced IL-1beta secretion at 10 uM preincubated for 2 hrs followed by PMA addition measured after 48 hrs by ELISA; settings: THP-1
[4] = (§1) Antiinflammatory activity in human THP1 cells assessed as inhibition of PMA-induced TNFalpha secretion at 10 uM preincubated for 2 hrs followed by PMA addition measured after 48 hrs by ELISA; settings: THP-1
THP-1 = assay: as §1

SMILES | inhibition at 10 µM [1] | viability at 20 µM [2] | inhibition at 10 µM [3] | inhibition at 10 µM [4] | inhibition (THP-1)
CN1C(C(=O)/C=C/c2cn(CC(=O)Nc3ccccc3)nn2)=C(O)c2ccccc2S1(=O)=O | 76.7% | 96.2% | 49.3% | 33.3% | –
CN1C(C(=O)/C=C/c2cn(-c3cccc(Cl)c3)nn2)=C(O)c2ccccc2S1(=O)=O | 5.4% | 96% | 37.3% | – | inactive
Cc1ccc(-c2cc(C(F)(F)F)nn2-c2ccc(S(N)(=O)=O)cc2)cc1 [CELECOXIB] | 20.1% | – | 31.1% | 37.4% | –
CN1C(C(=O)/C=C/c2cn(CC(=O)Nc3c(F)cccc3F)nn2)=C(O)c2ccccc2S1(=O)=O | 41.3% | 95.6% | 46.3% | 31.3% | –
CN1C(C(=O)/C=C/c2cn(-c3cccc([N+](=O)[O-])c3)nn2)=C(O)c2ccccc2S1(=O)=O | 30.7% | 92.6% | 25.6% | – | inactive
Cc1ccc(-n2cc(/C=C/C(=O)C3=C(O)c4ccccc4S(=O)(=O)N3C)nn2)cc1 | 45.2% | 94.3% | 50.2% | – | inactive
COc1ccc(-n2cc(/C=C/C(=O)C3=C(O)c4ccccc4S(=O)(=O)N3C)nn2)cc1 | 58.9% | 94.4% | 53.9% | – | inactive
CN1C(C(=O)/C=C/c2cn(-c3ccccc3)nn2)=C(O)c2ccccc2S1(=O)=O | 31.9% | 94.2% | 56.9% | 24% | –
CN1C(C(=O)/C=C/c2cn(CC(=O)Nc3ccc(F)cc3Br)nn2)=C(O)c2ccccc2S1(=O)=O | 65.4% | 93.6% | 63.8% | 59.8% | –
CN1C(C(=O)Nc2ccccn2)=C(O)c2ccccc2S1(=O)=O [PIROXICAM] | 11.4% | – | 21.8% | 25.8% | –
CN1C(C(=O)/C=C/c2cn(CC(=O)Nc3ccc(F)cc3)nn2)=C(O)c2ccccc2S1(=O)=O | 41.4% | 92.5% | 42.4% | 73.4% | –
CN1C(C(=O)/C=C/c2cn(CC(=O)NC3CCCCC3)nn2)=C(O)c2ccccc2S1(=O)=O | 56.1% | 95.2% | 47.7% | 39.7% | –
CN1C(C(=O)/C=C/c2cn(-c3ccccc3Br)nn2)=C(O)c2ccccc2S1(=O)=O | 16.2% | 94.4% | 45.9% | 13.7% | –
COc1ccc(NC(=O)Cn2cc(/C=C/C(=O)C3=C(O)c4ccccc4S(=O)(=O)N3C)nn2)cc1 | 64.8% | 94.5% | 49.8% | 62.9% | –
CN1C(C(=O)/C=C/c2cn(-c3ccc(C(F)(F)F)cc3)nn2)=C(O)c2ccccc2S1(=O)=O | 12.7% | 96.6% | 17.7% | – | inactive
CN1C(C(=O)/C=C/c2cn(-c3ccc([N+](=O)[O-])cc3)nn2)=C(O)c2ccccc2S1(=O)=O | 31.5% | 93% | 36.5% | – | inactive
CCCCCCCCn1cc(/C=C/C(=O)C2=C(O)c3ccccc3S(=O)(=O)N2C)nn1 | 40.9% | 92.3% | 64.7% | 2.9% | –
CN1C(C(=O)/C=C/c2cn(-c3cc([N+](=O)[O-])ccc3Cl)nn2)=C(O)c2ccccc2S1(=O)=O | 67.1% | 94.3% | 61.8% | 52.5% | –
CN1C(C(=O)/C=C/c2cn(-c3ccc(F)cc3F)nn2)=C(O)c2ccccc2S1(=O)=O | 29.6% | 96.2% | 47.7% | 11.2% | –
